Target: T1, human LPA1 (Homo sapiens, UniProt Q92633)
T1 construct: expressed in transfected cells; host or cells: CHO-K1
Test: In vitro LPA1 calcium flux antagonist assay, Bioduro protocol
Type: cell-based
Conditions: CHO-K1 cells overexpressing human LPA1 and G15a; LPA challenge at EC80; calcium mobilization on FLIPR Tetra; read-out: IC50 (nM) in Assay B2
Method: In Vitro LPA1 Calcium Flux Antagonist Assay Bioduro Protocol
CHO-K1 cells overexpressing human LPA1 and G15a were seeded at a total volume of 20 uL (15000 cells/well) into Matrigel pre-coated 384-well plates (coming -3764) and incubated at 37° C. After overnight incubation, the cells were serum starved for 4 h. Assays were performed in dye loading buffer containing 1× Fluo-8 AM (AAT Bioquest, 21080) and 2.5 mM probenecid (Thermo Fisher, 36400) in HBSS/20 mM Hepes. After cell starvation, the medium was replaced with 20 uL of dye loading buffer and incubated at 37° C. for 30 min. Then 5 uL of 5× compound titrated in dye loading buffer was added to the cells and incubated for 30 min followed by LPA challenge at EC80. Calcium mobilization was measured on a FLIPR Tetra (MDS). For LPA EC80 determination, starved cells were incubated with 20 uL of dye loading buffer for 1 h, then 5 uL of 5×LPA titrated in dye loading buffer was added to the cells. Calcium signals induced by LPA was monitors on a FLIPR.
Percentage inhibition is calculated using the following formula:
% Inhibition=100%×(1−(mean RFU of test sample−mean RFU of DMSO)/(mean RFU of LPA control−mean RFU of DMSO)).

T1 sequence (Q92633 whole entry): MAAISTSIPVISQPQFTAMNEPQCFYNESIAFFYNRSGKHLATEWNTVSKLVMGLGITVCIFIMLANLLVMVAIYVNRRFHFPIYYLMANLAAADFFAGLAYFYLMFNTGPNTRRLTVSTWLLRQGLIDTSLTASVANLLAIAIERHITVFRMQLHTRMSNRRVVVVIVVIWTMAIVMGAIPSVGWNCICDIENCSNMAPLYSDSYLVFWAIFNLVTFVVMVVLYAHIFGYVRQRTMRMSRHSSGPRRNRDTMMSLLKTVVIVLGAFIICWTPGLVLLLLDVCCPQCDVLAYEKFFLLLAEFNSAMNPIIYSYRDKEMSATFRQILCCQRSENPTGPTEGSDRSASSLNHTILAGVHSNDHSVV

| Compound | IC50 |
| --- | --- |
| COc1cc([C@@H](O)[C@H](Cn2cc3nccc(C(=O)O)c3n2)OC2CCCC2)ccc1C [Compound 191] | 662 nM |
| COc1cc([C@@H](O)[C@H](Cc2nc3c(C(=O)O)cccc3n2C)OC2CCCC2)cc(OC)c1C [Compound 175] | > 10000 nM |
| COc1cc([C@@H](O)[C@H](Cn2cc3nccc(C(=O)O)c3n2)OC2CCCC2)c(F)cc1C [Compound 190] | 1530 nM |
| COc1cc([C@@H](O)[C@H](Cn2cc3cncc(C(=O)O)c3n2)OC2CCCC2)cc(OC)c1C [Compound 159] | 49.6 nM |
| COc1cc([C@@H](O)[C@H](Cn2cc3cc(Cl)cc(C(=O)O)c3n2)OC2CCCC2)ccc1C(F)F [Compound 173] | 6.09 nM |
| Cc1ccc([C@@H](O)[C@H](Cn2cc3cccc(C(=O)O)c3n2)OC2CCCC2)cc1O [Compound 151] | ≥ 10000 nM |
| COc1c(C)ccc([C@@H](O)[C@H](Cn2cc3nccc(C(=O)O)c3n2)OC2CCCC2)c1F [Compound 193] | 757 nM |
| COc1cc([C@@H](O)[C@H](Cn2cc3cc(F)cc(C(=O)O)c3n2)OC2CCCC2)cc(OC)c1C [Compound 154] | 8.64 nM |
| COC(=O)c1sc(C[C@H](OC2CCCC2)[C@H](O)c2cc(OC)c(C)c(OC)c2)nc1CC(=O)O [Compound 152] | 8.53 nM |
| COc1c(C)ccc([C@@H](O)[C@H](Cn2cc3nccc(C(=O)O)c3n2)OC2CCCC2)c1C [Compound 192] | 1120 nM |
| COc1cc([C@@H](O)[C@H](Cc2cc3cccc(C(=O)O)n3n2)OC2CCCC2)cc(OC)c1C [Compound 169, 2-((2S,3R)-2-(cyclopentyloxy)-3-(3,5-dimethoxy-4-methylphenyl)-3-hydroxypropyl)pyrazolo[1,5-a]pyridine-7-carboxylic acid] | 150 nM |
| COc1cc([C@@H](O)[C@H](Cc2nc(CC(=O)O)c(C)s2)OC2CCCC2)cc(OC)c1C [Compound 177, 2-(2-((2S,3R)-2-(cyclopentyloxy)-3-(3,5-dimethoxy-4-methylphenyl)-3-hydroxypropyl)-5-methylthiazol-4-yl)acetic acid] | 154 nM |
| COc1cc([C@@H](O)[C@H](Cn2cc3ccc(F)c(C(=O)O)c3n2)OC2CCCC2)cc(OC)c1C [Compound 155] | 308 nM |
| COc1cc([C@@H](O)[C@H](Cn2cc3nccc(C(=O)O)c3n2)OCCc2ccc(F)cc2)cc(OC)c1C [Compound 187] | 132 nM |
| COc1cc([C@@H](O)[C@H](Cn2cc3cccc(-c4nc(=O)o[nH]4)c3n2)OC2CCCC2)cc(OC)c1C [Compound 181] | > 10000 nM |
| CCCc1sc(C[C@H](OC2CCCC2)[C@H](O)c2cc(OC)c(C)c(OC)c2)nc1CC(=O)O [Compound 179] | 20.3 nM |
| COc1cc([C@@H](O)[C@H](Cn2cc3cc(C4CC4)cc(C(=O)O)c3n2)OC2CCCC2)cc(OC)c1C [Compound 166] | 4.94 nM |
| COc1cc([C@@H](O)[C@H](Cn2cc3nc(C)cc(C(=O)O)c3n2)OC2CCCC2)cc(OC)c1C [Compound 194] | 26.9 nM |
| COc1cc([C@@H](O)[C@H](Cn2nc3cccc(C(=O)O)c3n2)OC2CCCC2)cc(OC)c1C [Compound 170] | > 10000 nM |
| COc1cc([C@@H](O)[C@H](Cn2cc3nccc(C(=O)O)c3n2)OCCc2ccccc2)cc(OC)c1C [Compound 184] | 24 nM |
| COc1cc([C@@H](O)[C@H](Cn2cc3c(F)ccc(C(=O)O)c3n2)OC2CCCC2)cc(OC)c1C [Compound 153] | 5.42 nM |
| Cc1ccc([C@@H](O)[C@H](Cn2cc3cccc(C(=O)O)c3n2)OC2CCCC2)cc1OC(F)(F)F [Compound 150] | 146 nM |
| COc1cc([C@@H](O)[C@H](Cc2nc3c(C(=O)O)cccc3s2)OC2CCCC2)cc(OC)c1C [Compound 157, 2-((2S,3R)-2-(cyclopentyloxy)-3-(3,5-dimethoxy-4-methylphenyl)-3-hydroxypropyl)benzo[d]thiazole-4-carboxylic acid] | 6.3 nM |
| CCc1sc(C[C@H](OC2CCCC2)[C@H](O)c2cc(OC)c(C)c(OC)c2)nc1CC(=O)O [Compound 178] | 73.8 nM |

Further lines, results first:

| IC50 | Compound |
| --- | --- |
| 40.8 nM | COc1cc(C(=O)O)n2nc(C[C@H](OC3CCCC3)[C@H](O)c3cc(OC)c(C)c(OC)c3)cc2c1 [Compound 235] |
| 1.65 nM | CCOc1cc(C(=O)O)c2nc(C[C@H](OC3CCCC3)[C@H](O)c3cc(OC)c(C)c(OC)c3)sc2c1 [Compound 275] |
| > 10000 nM | COc1cc([C@@H](O)[C@H](Cn2cc3nccc(C(=O)O)c3n2)OCCCc2ccccc2)cc(OC)c1C [Compound 214] |
| 530 nM | CCOc1cc([C@@H](O)[C@H](Cn2cc3nccc(C(=O)O)c3n2)OC2CCCC2)cc(OCC)c1C [Compound 203] |
| 43.4 nM | COc1cc([C@@H](O)[C@H](Cn2cc3nc(C(N)=O)cc(C(=O)O)c3n2)OC2CCCC2)cc(OC)c1C [Compound 222] |
| 52 nM | COc1cc([C@@H](O)[C@H](Cc2nc(C(C)C(=O)O)c(C3CC3)s2)OC2CCCC2)cc(OC)c1C (stereo partly drawn) [Compound 268] |
| 140 nM | COc1cc([C@@H](O)[C@H](Cn2cc3nccc(C(=O)O)c3n2)OC2CCCC2)cc(OC)c1C(F)F [Compound 215] |
| 15.8 nM | COc1cc([C@@H](O)[C@H](Cc2nc3c(C(=O)O)cc(F)cc3s2)OCC(C)C)cc(OC)c1C [Compound 262] |
| 53.3 nM | COc1cc(C(=O)O)n2nc(C[C@H](OC3CCCC3)[C@H](O)c3cc(OC)c(C)cc3C)cc2c1 [Compound 238] |
| 10.3 nM | COc1cc([C@@H](O)[C@H](Cc2cc3c(OC)ccc(C(=O)O)n3n2)OC2CCCC2)cc(OC)c1C [Compound 237, 2-((2S,3R)-2-(cyclopentyloxy)-3-(3,5-dimethoxy-4-methylphenyl)-3-hydroxypropyl)-4-methoxypyrazolo[1,5-a]pyridine-7-carboxylic acid] |
| 8.93 nM | CCc1cc(C(=O)O)c2nc(C[C@H](OCC(C)C)[C@H](O)c3cc(OC)c(C)c(OC)c3)sc2c1 [Compound 254] |
| 2.71 nM | COc1cc([C@@H](O)[C@H](Cc2nc3c(C(=O)O)cc(OC)c(F)c3s2)OC2CCCC2)cc(OC)c1C [Compound 279] |
| 62.2 nM | Cc1ccc([C@@H](O)[C@H](Cn2cc3cc(C#N)cc(C(=O)O)c3n2)OC2CCCC2)cc1OC(F)(F)F [Compound 228] |
| 449 nM | CCOc1cc([C@@H](O)[C@H](Cc2nc3c(C(=O)O)cccc3s2)OCC(C)C)ccc1C(C)=O [Compound 258] |
| 60.2 nM | COCc1sc(C[C@H](OC2CCCC2)[C@H](O)c2cc(OC)c(C)c(OC)c2)nc1CC(=O)O [Compound 249] |
| 5.79 nM | COc1cc([C@@H](O)[C@H](Cc2nc3c(C(=O)O)cc(C(F)(F)F)cc3s2)OCC(C)C)cc(OC)c1C [Compound 253] |
| 4260 nM | COc1cc([C@@H](O)[C@H](Cn2cc3nccc(C(=O)O)c3n2)OC2CCCC2)c(Cl)c(OC)c1C [Compound 202] |

| IC50 | Compound |
| --- | --- |
| 71.6 nM | CCCc1sc(C[C@H](OC2CCCC2)[C@H](O)c2cc(OC)c(C(C)=O)c(OC)c2)nc1C(C)C(=O)O (stereo partly drawn) [Compound 272] |
| 37.3 nM | CCc1cc(C(=O)O)n2nc(C[C@H](OC3CCCC3)[C@H](O)c3cc(OC)c(C)c(OC)c3)cc2c1 [Compound 251] |
| 366 nM | CCCc1sc(C[C@H](OC2CCCC2)[C@H](O)c2cc(OC)c(C)c(OC)c2)nc1[C@@H](C)C(=O)O [Compound 261] |
| 17.4 nM | COc1cc([C@@H](O)[C@H](Cc2cc3cc(C(F)(F)F)cc(C(=O)O)n3n2)OC2CCCC2)cc(OC)c1C [Compound 250] |
| 122 nM | CCOc1cc([C@@H](O)[C@H](Cn2cc3nccc(C(=O)O)c3n2)OC2CCCC2)cc(OCC)c1C(C)=O [Compound 204] |
| 938 nM | COc1cc([C@@H](O)[C@H](Cn2cc3nccc(C(=O)O)c3n2)OC2CCCC2)c(Cl)cc1C [Compound 201] |
| 5.33 nM | COc1cc([C@@H](O)[C@H](Cc2cc3cccc(C(=O)O)n3n2)OC2Cc3ccccc3C2)cc(OC)c1C [Compound 264] |
| ≥ 10000 nM | COc1cc([C@@H](O)[C@H](Cn2nnc3c(C(=O)O)cccc32)OC2CCCC2)cc(OC)c1C [Compound 213] |
| 723 nM | COc1cc([C@@H](O)C(Cc2nc(C3(C(=O)O)CC3)c(C)s2)OC2CCCC2)cc(OC)c1C (stereo partly drawn) [Compound 207] |
| 47.2 nM | CCOc1cc([C@@H](O)[C@H](Cc2nc3c(C(=O)O)cccc3s2)OC2CCCC2)cc(OCC)c1C#N [Compound 257, 2-((2S,3R)-3-(4-cyano-3,5-diethoxyphenyl)-2-(cyclopentyloxy)-3-hydroxypropyl) benzo [d]thiazole-4-carboxylic acid] |
| 1300 nM | COc1cc([C@@H](O)[C@H](Cc2cn3cc(C)cc(C(=O)O)c3n2)OC2CCCC2)cc(OC)c1C [Compound 217] |
| 5.75 nM | CCc1cc(C(=O)O)c2nc(C[C@H](OC3CCCC3)[C@H](O)c3cc(OC)c(C)c(OC)c3)sc2c1 [Compound 255] |
| 37.4 nM | COc1cc([C@@H](O)[C@H](Cc2nc([C@H](C)C(=O)O)c(C)s2)OC2CCCC2)cc(OC)c1C (single isomer, unassigned) [Compound 239] |
| 7.18 nM | COc1cc([C@@H](O)[C@H](Cc2nc3c(C(=O)O)cc(F)cc3s2)OC2CCCC2)cc(OC)c1C [Compound 266] |
| 7.26 nM | COc1cc([C@@H](O)[C@H](Cc2cc3cc(C4CC4)cc(C(=O)O)n3n2)OC2CCCC2)cc(OC)c1C [Compound 229] |
| ≥ 10000 nM | CCOc1cc([C@@H](O)[C@H](Cn2cc3cncc(C(=O)O)c3n2)OC2CCCC2)cc(OCC)n1 [Compound 208] |
